From patent US12049520B2, “Bicyclic peptide ligands specific for CD137” (priority 2017, dated 2024)
Entries after “also recorded” stand apart in the source; their conditions may differ.

How the values were obtained:
CD137 [1] = target: T1, CD137 (Homo sapiens, UniProt Q07011); assay: CD137 cell activity, Promega CD137 NF-κB luciferase reporter assay in Jurkat cells, antagonism of CD137L; assay type: cell-based; set-up: host or cells: Jurkat (CD137 Jurkat reporter cells); details: co-incubation with trimeric CD137L, FIG. 1
Experimental: The biological activity of the CD137-specific peptides was tested using the cellular CD137 luciferase reporter assay kit (Promega). The cells in this commercially available kit express luciferase that is activated down-stream of CD137. This assay can be used to assess agonism (exemplified by CD137 ligand, CD137L) and antagonism (exemplified by bicyclic peptide 74-01-04-N002).
The Promega CD137 cell-activity assay uses NF-κB luciferase luminescence as a read-out of CD137 activation in Jurkat cells. […] Dilute and then titrate down the bicyclic peptide in a sterile 96 well-plate. […] Prepare enough reagent for duplicate samples and then perform ⅓ dilution series dilution series. Include positive control CD137L and bicyclic peptide alone. […] Add 50 μl cells/well to white cell culture plate. Add 12.5 μl bicyclic peptide (at 6× final concentration) to the cells.
Co-incubate cells together with CD137L agonist and bicyclic peptide for 6 h at 37° C., 5% CO2. After 6 h thaw Bio-Glo™ and develop the assay at room-temperature. Add 75 μl Bio-Glo™ per well and incubate 5-10 min. Read luminescence signal on Pherastar plate-reader LUM plus models, gain 3600 using MARS software. Analyse data by calculating the percentage inhibition compared to CD137L alone. […]
The CD137 reporter activity was determined as NF-κB promotor driven luciferase activity.

CD137 [2] = target: T1, CD137; assay: Fluorescence polarization competition binding assay, tracer BCY640 against CD137L, Urelumab, Utomilumab; set-up: purchased AcroBiosystems; details: BCY640 tracer at 1 nM, CD137 500 nM, FIGS. 2 and 3
Experimental: The binding site of the hCD137-specific Bicycle peptide was determined by competition experiment between a fluorescent labelled CD137 binding peptide and natural ligand CD137L, agonistic antibodies Urelumab and Utomilumab. Urelumab antibody binds to a distinct binding site while CD137L and Utomilumab both bind to the site termed the ligand-binding site.
The competitor agonists CD137L (R&D systems), Urelumab and Utomilumab were diluted in assay buffer 20 mM HEPES, 150 mM NaCl, 0.05% P20, pH7.5 to a top concentration of 500-1000 nM. The human CD137 protein (AcroBiosystems) was diluted to 500 nM final concentration in the assay. […] The assay was typically set up by adding 5 μL agonist competitor, 10 μL CD137 protein then 10 μL fluorescent peptide. The total volume of 25 μL was prepared in black walled and bottomed low binding low volume 384 well plates. Measurements were conducted on a BMG PHERAstar FS equipped with an FP 485 520 520 optic module at 25° C. with 200 flashes per well and a positioning delay of 0.1 second. Each well was measured every 5 minutes for 60 minutes. The gain was set in a well containing tracer without target protein. The mP-values at the end of the 60 minutes read were plotted against concentration of the agonists. Reduction in the mP-values indicates competition between the known agonist and the tracer peptide.

CD137 [3] = target: T1, CD137; assay: CD137 direct binding assay (fluorescence polarisation); details: D-Alanine scan, reference BCY7151
Experimental: Affinity of the peptides of the invention for human CD137 (Ki) was determined using a fluorescence polarisation assay, in accordance with the methods disclosed in WO 2016/067035. Peptides of the invention were labelled with a fluorescent tag (fluorescein, FI) and diluted to 2.5 nM in 50 mM HEPES with 100 mM NaCl and 0.05% tween pH 7.5. CD137 protein was titrated starting at 3 μM in the same assay buffer as the peptide to assay 1 nM peptide in a total volume of 25 μL in black walled and bottomed low bind low volume 384 well plates. The assay was typically set up by adding 5 μL assay buffer, 10 μL CD137 protein then 10 μL fluorescent peptide. The concentrations of CD137 protein were 1 in 2 serial dilutions to give 12 different concentrations starting at 3 μM. Measurements were conducted on a BMG PHERAstar FS equipped with an FP 485 520 520 optic module at 25° C. with 200 flashes per well and a positioning delay of 0.1 second. Alternatively, the measurements were performed using Envision (PerkinElmer) equipped with FITC FP Dual Enh mirror, set to 30 flashes. Each well was measured every 5 minutes for 60 minutes. The gain used for analysis was determined for each tracer at the end of the 60 minutes where there was no protein in the well. The mP were fit to a standard 1:1 binding model with a quadratic equation to generate a Kd value.

T1 sequence (Q07011 24-255): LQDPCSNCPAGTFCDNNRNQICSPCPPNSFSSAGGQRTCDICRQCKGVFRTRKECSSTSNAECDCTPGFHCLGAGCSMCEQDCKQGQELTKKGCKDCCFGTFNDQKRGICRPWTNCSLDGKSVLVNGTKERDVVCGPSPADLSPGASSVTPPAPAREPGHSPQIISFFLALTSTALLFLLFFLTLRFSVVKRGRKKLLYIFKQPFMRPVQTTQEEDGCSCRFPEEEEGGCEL

In the case of ACIEEGQYCFADPYMCA [BCY592], the “effect on CD137L activity in CD137 reporter cells” value (CD137 [1]) is reported as “can act as an antagonist that inhibits CD137L activity; also recorded: inhibited CD137L activity”.
For ACIEEGQYCFADPYMCA-Sar6-K [BCY640], the “binding site on CD137 by competition” value (CD137 [2]) was “binds to the physiologically relevant epitope that is shared with both the natural CD137 ligand (CD137L) and CD137 antibody (Utomilumab)”.
In the case of [PEG3]-ACIEEaQYCFADPY(Nle)CA [BCY7297], the “affinity relative to the reference peptide” value (CD137 [3]) is reported as “improved affinity”.
